In article PMC5433425 (PeerJ, 2017):

Columns and labels:
E. coli AG100tet = experiment: EtBr efflux by real-time fluorometry; conditions: 80 µM
E. coli AG100 = experiment: EtBr accumulation by real-time fluorometry; conditions: EtBr 1 µg/ml + inhibitor 80 µM

CCCOc1ccc(-c2cc(OCCN3CCNCC3)c3ccccc3n2)cc1 [PQQ4R, 4-(2-(piperazin-1-yl)ethoxy)-2-(4-propoxyphenyl) quinolone]
Fluorescence raw data, Channel Cycling A.530/585hp (E. coli AG100tet; cycle 31, + glucose): 5.094
Fluorescence raw data, Channel Cycling A.530/585hp (E. coli AG100tet; cycle 31, without glucose): 3.321
Fluorescence raw data, Channel Cycling A.530/585hp (E. coli AG100tet; cycle 32, + glucose): 5.074
Fluorescence raw data, Channel Cycling A.530/585hp (E. coli AG100tet; cycle 32, without glucose): 3.301
Fluorescence raw data, Channel Cycling A.530/585hp (E. coli AG100tet; cycle 33, + glucose): 5.085
Fluorescence raw data, Channel Cycling A.530/585hp (E. coli AG100tet; cycle 33, without glucose): 3.3487
Fluorescence raw data, Channel Cycling A.530/585hp (E. coli AG100tet; cycle 34, + glucose): 5.136
Fluorescence raw data, Channel Cycling A.530/585hp (E. coli AG100tet; cycle 34, without glucose): 3.377
Fluorescence raw data, Channel Cycling A.530/585hp (E. coli AG100tet; cycle 35, + glucose): 5.101
Fluorescence raw data, Channel Cycling A.530/585hp (E. coli AG100tet; cycle 35, without glucose): 3.39
Fluorescence raw data, Channel Cycling A.530/585hp (E. coli AG100tet; cycle 36, + glucose): 5.167
Fluorescence raw data, Channel Cycling A.530/585hp (E. coli AG100tet; cycle 36, without glucose): 3.3989
Fluorescence raw data, Channel Cycling A.530/585hp (E. coli AG100tet; cycle 37, + glucose): 5.0249
Fluorescence raw data, Channel Cycling A.530/585hp (E. coli AG100tet; cycle 37, without glucose): 3.336
Fluorescence raw data, Channel Cycling A.530/585hp (E. coli AG100tet; cycle 38, + glucose): 5.139
Fluorescence raw data, Channel Cycling A.530/585hp (E. coli AG100tet; cycle 38, without glucose): 3.322
Fluorescence raw data, Channel Cycling A.530/585hp (E. coli AG100tet; cycle 39, + glucose): 5.07
Fluorescence raw data, Channel Cycling A.530/585hp (E. coli AG100tet; cycle 39, without glucose): 3.367
Fluorescence raw data, Channel Cycling A.530/585hp (E. coli AG100tet; cycle 40, + glucose): 5.071
Fluorescence raw data, Channel Cycling A.530/585hp (E. coli AG100tet; cycle 40, without glucose): 3.292
Fluorescence raw data, Channel Cycling A.530/585hp (E. coli AG100tet; cycle 41, + glucose): 5.036
Fluorescence raw data, Channel Cycling A.530/585hp (E. coli AG100tet; cycle 41, without glucose): 3.413
Fluorescence raw data, Channel Cycling A.530/585hp (E. coli AG100tet; cycle 42, + glucose): 4.946
Fluorescence raw data, Channel Cycling A.530/585hp (E. coli AG100tet; cycle 42, without glucose): 3.2813
Fluorescence raw data, Channel Cycling A.530/585hp (E. coli AG100tet; cycle 43, + glucose): 5.023
Fluorescence raw data, Channel Cycling A.530/585hp (E. coli AG100tet; cycle 43, without glucose): 3.329
Fluorescence raw data, Channel Cycling A.530/585hp (E. coli AG100tet; cycle 44, + glucose): 4.8625
Fluorescence raw data, Channel Cycling A.530/585hp (E. coli AG100tet; cycle 44, without glucose): 3.331
Fluorescence raw data, Channel Cycling A.530/585hp (E. coli AG100tet; cycle 45, without glucose): 3.333
Fluorescence raw data, Channel Cycling A.530/585hp (E. coli AG100tet; cycle 46, without glucose): 3.356
Fluorescence raw data, Channel Cycling A.530/585hp (E. coli AG100tet; cycle 47, without glucose): 3.3344
Fluorescence raw data, Channel Cycling A.530/585hp (E. coli AG100tet; cycle 48, without glucose): 3.246
Fluorescence raw data, Channel Cycling A.530/585hp (E. coli AG100tet; cycle 49, without glucose): 3.317
Fluorescence raw data, Channel Cycling A.530/585hp (E. coli AG100tet; cycle 50, without glucose): 3.306
Fluorescence raw data, Channel Cycling A.530/585hp (E. coli AG100tet; cycle 51, without glucose): 3.275
Fluorescence raw data, Channel Cycling A.530/585hp (E. coli AG100tet; cycle 52, without glucose): 3.293
Fluorescence raw data, Channel Cycling A.530/585hp (E. coli AG100tet; cycle 53, without glucose): 3.359
Fluorescence raw data, Channel Cycling A.530/585hp (E. coli AG100tet; cycle 54, without glucose): 3.295
Fluorescence raw data, Channel Cycling A.530/585hp (E. coli AG100tet; cycle 55, without glucose): 3.253
Fluorescence raw data, Channel Cycling A.530/585hp (E. coli AG100tet; cycle 56, without glucose): 3.229
Fluorescence raw data, Channel Cycling A.530/585hp (E. coli AG100tet; cycle 57, without glucose): 3.179
Fluorescence raw data, Channel Cycling A.530/585hp (E. coli AG100tet; cycle 58, without glucose): 3.169
Fluorescence raw data, Channel Cycling A.530/585hp (E. coli AG100tet; cycle 59, without glucose): 3.145
Fluorescence raw data, Channel Cycling A.530/585hp (E. coli AG100tet; cycle 60, without glucose): 3.211
Fluorescence raw data, Channel Cycling A.530/585hp (E. coli AG100tet; cycle 61, without glucose): 3.105
EtBr fluorescence (E. coli AG100; cycle 1): 8.891
EtBr fluorescence (E. coli AG100; cycle 2): 15.958
EtBr fluorescence (E. coli AG100; cycle 3): 24.4435
EtBr fluorescence (E. coli AG100; cycle 4): 32.9586
EtBr fluorescence (E. coli AG100; cycle 5): 42.0049
EtBr fluorescence (E. coli AG100; cycle 6): 50.7014
EtBr fluorescence (E. coli AG100; cycle 7): 59.8624
EtBr fluorescence (E. coli AG100; cycle 8): 68.0874
EtBr fluorescence (E. coli AG100; cycle 9): 75.8019
EtBr fluorescence (E. coli AG100; cycle 10): 82.5362
EtBr fluorescence (E. coli AG100; cycle 11): 89.2
EtBr fluorescence (E. coli AG100; cycle 12): 95.2197
EtBr fluorescence (E. coli AG100; cycle 13): 100
EtBr fluorescence (E. coli AG100; cycle 14): 100
EtBr fluorescence (E. coli AG100; cycle 15): 100
EtBr fluorescence (E. coli AG100; cycle 16): 100
EtBr fluorescence (E. coli AG100; cycle 17): 100
EtBr fluorescence (E. coli AG100; cycle 18): 100
EtBr fluorescence (E. coli AG100; cycle 19): 100
EtBr fluorescence (E. coli AG100; cycle 20): 100
EtBr fluorescence (E. coli AG100; cycle 21): 100
EtBr fluorescence (E. coli AG100; cycle 22): 100
EtBr fluorescence (E. coli AG100; cycle 23): 100
EtBr fluorescence (E. coli AG100; cycle 24): 100
EtBr fluorescence (E. coli AG100; cycle 25): 100
EtBr fluorescence (E. coli AG100; cycle 26): 100
EtBr fluorescence (E. coli AG100; cycle 27): 100
EtBr fluorescence (E. coli AG100; cycle 28): 100
EtBr fluorescence (E. coli AG100; cycle 29): 100
EtBr fluorescence (E. coli AG100; cycle 30): 100
